Source: patent US20260347338A1, “PYRIMIDINE/PYRIDINE DERIVATIVES OR SALTS THEREOF AND PHARMACEUTICAL COMPOSITIONS COMPRISING THE SAME” (YUHAN CORPORATION, priority 2023, published 2026)
Structures can show the parent of a compound that is named as a salt.

Biological target: T1, human recombinant HPK1 (Homo sapiens, UniProt Q92918)
T1 construct: purchased BPS Bioscience
Test: Inhibitory activity against human recombinant HPK1 (TR-FRET)
Assay type: biochemical
Details: ULight-p70S6K peptide, ATP at Km, room temperature, 1 hour, 0.32 to 1000 nM compound
Outline: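 IC50 classes A–D use 10, 50 and 100 nM cut-offs, derived from TR-FRET signal inhibition relative to DMSO controls. Human recombinant HPK1 phosphorylated ULight-p70S6K peptide at Km ATP for 1 h, room temperature, pH 7.4; test range 0.32–1000 nM final, detection with Eu-labelled antibody after EDTA quench.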

T1 sequence (Q92918 whole entry): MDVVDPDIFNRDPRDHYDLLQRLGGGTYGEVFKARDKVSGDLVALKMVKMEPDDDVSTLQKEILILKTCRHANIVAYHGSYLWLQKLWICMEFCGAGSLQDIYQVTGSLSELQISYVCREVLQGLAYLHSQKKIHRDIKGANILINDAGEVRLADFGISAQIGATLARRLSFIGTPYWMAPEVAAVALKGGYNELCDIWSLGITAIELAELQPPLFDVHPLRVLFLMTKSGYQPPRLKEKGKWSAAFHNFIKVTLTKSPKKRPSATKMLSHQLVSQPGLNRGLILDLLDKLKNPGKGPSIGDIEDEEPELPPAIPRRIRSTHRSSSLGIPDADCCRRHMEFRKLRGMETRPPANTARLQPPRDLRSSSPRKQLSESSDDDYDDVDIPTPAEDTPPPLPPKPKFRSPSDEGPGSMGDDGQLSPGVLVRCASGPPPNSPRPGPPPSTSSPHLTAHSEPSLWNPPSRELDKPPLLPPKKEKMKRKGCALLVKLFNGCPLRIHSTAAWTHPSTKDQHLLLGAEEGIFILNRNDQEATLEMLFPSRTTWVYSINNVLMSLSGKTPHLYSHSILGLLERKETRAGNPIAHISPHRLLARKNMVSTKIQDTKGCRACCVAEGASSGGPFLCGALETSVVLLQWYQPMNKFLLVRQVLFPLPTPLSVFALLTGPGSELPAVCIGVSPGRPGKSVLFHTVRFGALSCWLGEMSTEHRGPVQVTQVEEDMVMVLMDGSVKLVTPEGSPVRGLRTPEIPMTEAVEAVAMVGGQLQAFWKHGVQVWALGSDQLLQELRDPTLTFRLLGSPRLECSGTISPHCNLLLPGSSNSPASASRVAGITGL

| SMILES | IC50 [nM] |
| --- | --- |
| COc1cccc(F)c1-c1nccc(Nc2cc(N3C[C@@H](C)C[C@H](N)C3)c(-c3cnn(C(F)F)c3)cn2)n1 [Example 205, N-(4-((3S,5S)-3-amino-5-methylpiperidin-1-yl)-5-(1-(difluoromethyl)-1H-pyrazol-4-yl)pyridin-2-yl)-2-(2-fluoro-6-methoxyphenyl)pyrimidin-4-amine hydrochloride] | ≤ 10 |
| COc1cccc(F)c1-c1nccc(Nc2cc(N3CCC[C@H](N)C3)c(-c3cnn(CC4CC(F)(F)C4)c3)cn2)n1 [Example 245, (S)-N-(4-(3-aminopiperidin-1-yl)-5-(1-((3,3-difluorocyclobutyl)methyl)-1H-pyrazol-4-yl)pyridin-2-yl)-2-(2-fluoro-6-methoxyphenyl)pyrimidin-4-amine hydrochloride] | ≤ 10 |
| COc1cccc(F)c1-c1nccc(Nc2cc(N3CCC[C@H](N)C3)c(C#Cc3cnn(CC(F)F)c3)cn2)n1 [Example 165, (S)-N-(4-(3-aminopiperidin-1-yl)-5-((1-(2,2-difluoroethyl)-1H-pyrazol-4-yl)ethynyl)pyridin-2-yl)-2-(2-fluoro-6-methoxyphenyl)pyrimidin-4-amine hydrochloride] | ≤ 10 |
| COc1cccc(F)c1-c1nc(Nc2cc(N3CCC[C@H](N)C3)c(-c3cnn(CC4CC4)c3)cn2)ccc1C#N [Example 330, 6-((4-((S)-3-aminopiperidin-1-yl)-5-(1-(cyclopropylmethyl)-1H-pyrazol-4-yl)pyridin-2-yl)amino)-2-(2-fluoro-6-methoxyphenyl)nicotinonitrile hydrochloride] | ≤ 10 |
| COc1cccc(F)c1-c1nccc(Nc2cc(N3CCCC(CF)C3)c(-c3cnn(C4CCOCC4)c3)cn2)n1 (centres unmarked) [Example 85, 2-(2-fluoro-6-methoxyphenyl)-N-(4-(3-(fluoromethyl)piperidin-1-yl)-5-(1-(tetrahydro-2H-pyran-4-yl)-1H-pyrazol-4-yl)pyridin-2-yl)pyrimidin-4-amine] | ≤ 10 |
| COc1cc(CO)cc(F)c1-c1nccc(Nc2cc(N3CCC[C@H](N)C3)c(-c3cnn(CC(F)(F)F)c3)cn2)n1 [Example 102, (S)-(4-(4-((4-(3-aminopiperidin-1-yl)-5-(1-(2,2,2-trifluoroethyl)-1H-pyrazol-4-yl)pyridin-2-yl)amino)pyrimidin-2-yl)-3-fluoro-5-methoxyphenyl)methanol hydrochloride] | ≤ 10 |
| COc1cccc(F)c1-c1nccc(Nc2cc(N3CCC[C@H](O)C3)c(-c3ccc(C(=O)N4CCOCC4)nc3)cn2)n1 [Example 37, (S)-(6′-((2-(2-fluoro-6-methoxyphenyl)pyrimidin-4-yl)amino)-4′-(3-hydroxypiperidin-1-yl)-[3,3′-bipyridin]-6-yl)(morpholino)methanone] | 10 to 50 |
| COc1c(F)ccc(F)c1-c1nccc(Nc2cc(N3CCC[C@H](O)C3)c(-c3cnn(C4CCOCC4)c3)cn2)n1 [Example 23, (S)-1-(2-((2-(3,6-difluoro-2-methoxyphenyl)pyrimidin-4-yl)amino)-5-(1-(tetrahydro-2H-pyran-4-yl)-1H-pyrazol-4-yl)pyridin-4-yl)piperidin-3-ol] | 10 to 50 |
| COc1cccc(F)c1-c1nc(Nc2cc(N3CCC[C@H](O)C3)c(C(=O)N[C@@H]3CC[C@@H](O)C3)cn2)ccc1N [Example 201, 6-((5-amino-6-(2-fluoro-6-methoxyphenyl)pyridin-2-yl)amino)-N-((1R,3R)-3-hydroxycyclopentyl)-4-((S)-3-hydroxypiperidin-1-yl)nicotinamide] | ≤ 10 |
| COc1cccc(F)c1-c1nccc(Nc2cc(N3CCC[C@H](N)C3)c(-c3ccc(F)c(C(F)(F)F)c3)cn2)n1 [Example 293, (S)-N-(4-(3-aminopiperidin-1-yl)-5-(4-fluoro-3-(trifluoromethyl)phenyl)pyridin-2-yl)-2-(2-fluoro-6-methoxyphenyl)pyrimidin-4-amine hydrochloride] | ≤ 10 |
| COc1cccc(F)c1-c1nccc(Nc2cc(N3CC[C@@H](NC(C)=O)C3)c(-c3cnn(C4CCOCC4)c3)cn2)n1 [Example 126, (R)-N-(1-(2-((2-(2-fluoro-6-methoxyphenyl)pyrimidin-4-yl)amino)-5-(1-(tetrahydro-2H-pyran-4-yl)-1H-pyrazol-4-yl)pyridin-4-yl)pyrrolidin-3-yl)acetamide] | 10 to 50 |
| COc1cccc(F)c1-c1nccc(Nc2cc(N3CCC[C@H](N)C3)c(-c3ccc4c(c3)COC(=O)N4)cn2)n1 [Example 258, (S)-6-(4-(3-aminopiperidin-1-yl)-6-((2-(2-fluoro-6-methoxyphenyl)pyrimidin-4-yl)amino)pyridin-3-yl)-1,4-dihydro-2H-benzo[d][1,3]oxazin-2-one hydrochloride] | ≤ 10 |
| COc1cc(F)cc(F)c1-c1nc(Nc2cc(N3CC[C@@H](C)[C@H](N)C3)c(-c3cnn(C(F)F)c3)cn2)ccc1C#N [Example 338, 6-((4-((3S,4R)-3-amino-4-methylpiperidin-1-yl)-5-(1-(difluoromethyl)-1H-pyrazol-4-yl)pyridin-2-yl)amino)-2-(2,4-difluoro-6-methoxyphenyl)nicotinonitrile hydrochloride] | ≤ 10 |
| COc1cccc(F)c1-c1nc(Nc2cc(N3CCC[C@H](N)C3)c(-c3cnn(C(F)F)c3)cn2)ccc1N [Example 151, N^2-(4-((S)-3-aminopiperidin-1-yl)-5-(1-(difluoromethyl)-1H-pyrazol-4-yl)pyridin-2-yl)-6-(2-fluoro-6-methoxyphenyl)pyridin-2,5-diamine hydrochloride] | ≤ 10 |
| N[C@H]1CCCN(c2cc(Nc3ccnc(-c4cc5nccnc5cc4F)n3)ncc2-c2cnn(C(F)F)c2)C1 [Example 88, (S)-N-(4-(3-aminopiperidin-1-yl)-5-(1-(difluoromethyl)-1H-pyrazol-4-yl)pyridin-2-yl)-2-(7-fluoroquinoxalin-6-yl)pyrimidin-4-amine hydrochloride] | ≤ 10 |
| COc1cccc(F)c1-c1nccc(Nc2cc(N3CCC[C@H](N)C3)c(-c3cnn(C4COC4)c3)cn2)n1 [Example 277, (S)-N-(4-(3-aminopiperidin-1-yl)-5-(1-(oxetan-3-yl)-1H-pyrazol-4-yl)pyridin-2-yl)-2-(2-fluoro-6-methoxyphenyl)pyrimidin-4-amine hydrochloride] | ≤ 10 |
| COc1cncc(-c2nccc(Nc3cc(N4CCC[C@H](O)C4)c(C(=O)C4CC4)cn3)n2)c1 [Example 3, (S)-cyclopropyl(4-(3-hydroxypiperidin-1-yl)-6-((2-(5-methoxypyridin-3-yl)pyrimidin-4-yl)amino)pyridin-3-yl)methanone] | 50 to 100 |
| COC(=O)c1ccc(Nc2cc(N3CCC[C@H](N)C3)c(-c3cnn(C4CCOCC4)c3)cn2)nc1-c1c(F)cccc1OC [Example 71, methyl 6-((4-((S)-3-aminopiperidin-1-yl)-5-(1-(tetrahydro-2H-pyran-4-yl)-1H-pyrazol-4-yl)pyridin-2-yl)amino)-2-(2-fluoro-6-methoxyphenyl)nicotinate hydrochloride] | ≤ 10 |
| COc1cccc(F)c1-c1nc(Nc2cc(N3CCC[C@H](N)C3)c(-c3cnn(C4CCOCC4)c3)cn2)ccc1N [Example 181, N^2-(4-((S)-3-aminopiperidin-1-yl)-5-(1-(tetrahydro-2H-pyran-4-yl)-1H-pyrazol-4-yl)pyridin-2-yl)-6-(2-fluoro-6-methoxyphenyl)pyridin-2,5-diamine hydrochloride] | ≤ 10 |
| Nc1cncc(-c2nccc(Nc3cc(N4CCC[C@H](O)C4)c(C(=O)C4CC4)cn3)n2)c1 [Example 2, (S)-(6-((2-(5-aminopyridin-3-yl)pyrimidin-4-yl)amino)-4-(3-hydroxypiperidin-1-yl)pyridin-3-yl)(cyclopropyl)methanone] | 10 to 50 |
| COc1cccc(F)c1-c1nccc(Nc2cc(N3CC[C@@H](OC)[C@H](N)C3)c(-c3cnn(C(F)F)c3)cn2)n1 [Example 254, N-(4-((3R,4R)-3-amino-4-methoxypiperidin-1-yl)-5-(1-(difluoromethyl)-1H-pyrazol-4-yl)pyridin-2-yl)-2-(2-fluoro-6-methoxyphenyl)pyrimidin-4-amine] | ≤ 10 |
| COc1cccc(F)c1-c1nccc(Nc2cc(N3CCC[C@H](N)C3)c(-c3cnn(CC(F)(F)F)c3)cn2)n1 [Example 78, (S)-N-(4-(3-aminopiperidin-1-yl)-5-(1-(2,2,2-trifluoroethyl)-1H-pyrazol-4-yl)pyridin-2-yl)-2-(2-fluoro-6-methoxyphenyl)pyrimidin-4-amine hydrochloride] | ≤ 10 |
| COc1cccc(F)c1-c1nccc(Nc2cc(N3CCC[C@H](N)C3)c(-c3ccc(F)c(C)c3)cn2)n1 [Example 282, (S)-N-(4-(3-aminopiperidin-1-yl)-5-(4-fluoro-3-methylphenyl)pyridin-2-yl)-2-(2-fluoro-6-methoxyphenyl)pyrimidin-4-amine hydrochloride] | ≤ 10 |
| COc1cccc(F)c1-c1nccc(Nc2cc(N3CCC[C@H](N)C3)c(-c3cnn(C4CCNCC4)c3)cn2)n1 [Example 283, (S)-N-(4-(3-aminopiperidin-1-yl)-5-(1-(piperidin-4-yl)-1H-pyrazol-4-yl)pyridin-2-yl)-2-(2-fluoro-6-methoxyphenyl)pyrimidin-4-amine hydrochloride] | ≤ 10 |
| COc1cccc(F)c1-c1nccc(Nc2cc(N3CCC[C@H](N)C3)c(-c3cnn(CCN(C)C)c3)cn2)n1 [Example 246, (S)-N-(4-(3-aminopiperidin-1-yl)-5-(1-(2-(dimethylamino)ethyl)-1H-pyrazol-4-yl)pyridin-2-yl)-2-(2-fluoro-6-methoxyphenyl)pyrimidin-4-amine hydrochloride] | ≤ 10 |
| COc1cccc(F)c1-c1nc(Nc2cc(N3CCC[C@H](O)C3)c(C(=O)N[C@@H]3CC[C@H](N)C3)cn2)ccc1[N+](=O)[O-] [Example 200, N-((1R,3S)-3-aminocyclopentyl)-6-((6-(2-fluoro-6-methoxyphenyl)-5-nitropyridin-2-yl)amino)-4-((S)-3-hydroxypiperidin-1-yl)nicotinamide] | ≤ 10 |
